From patent US20140296255A1, “LYSINE DEMETHYLASE INHIBITORS FOR THROMBOSIS AND CARDIOVASCULAR DISEASES” (ORYZONG GENOMICS, S.A., priority 2011, published 2014)
Where two headings read alike, the source gives them in different places. Blank lines part the entries; values can stand above or below the compound they belong to.

Experiments:
[1] = target: T1, Human recombinant LSD1 protein (Homo sapiens, UniProt O60341); experiment: LSD1 demethylase inhibition, Amplex Red peroxide/peroxidase-coupled assay; type: biochemical; settings: further, more elaborate determination (Table 1)
T1 construct: purchased BPS Bioscience Inc
Description: Compounds for use in the methods of the invention can be identified by their ability to inhibit LSD1. The ability of compounds to inhibit LSD1 can be tested as follows. Human recombinant LSD1 protein was purchased from BPS Bioscience Inc. In order to monitor LSD1 enzymatic activity and/or its inhibition rate by the LSD1 inhibitor(s) of interest, di-methylated H3-K4 peptide (Millipore) was chosen as a substrate. The demethylase activity was estimated, under aerobic conditions, by measuring the release of H2O2 produced during the catalytic process, using the Amplex® Red peroxide/peroxidase-coupled assay kit (Invitrogen).
Within the experiment, each concentration of inhibitor was tested in duplicate. […] The enzymatic reactions were set up in a 50 mM sodium phosphate, pH 7.4 buffer. At the end of the incubation, Amplex® Red reagent and horseradish peroxidase (HPR) solution were added to the reaction according to the recommendations provided by the supplier (Invitrogen), and left to incubate for 30 extra minutes at room temperature in the dark. A 1 μM H2O2 solution was used as a control of the kit efficiency. The conversion of the Amplex® Red reagent to resorufin due to the presence of H2O2 in the assay, was monitored by fluorescence (excitation at 540 nm, emission at 590 nm) using a microplate reader (Infinite 200, Tecan). Arbitrary units were used to measure level of H2O2 produced in the absence and/or in the presence of inhibitor.
The maximum demethylase activity of LSD1 was obtained in the absence of inhibitor and corrected for background fluorescence in the absence of LSD1. The Ki (IC50) of each inhibitor was estimated at half of the maximum activity.

[2] = target: T2, Human recombinant monoamine oxidase MAO-A (Homo sapiens, UniProt P21397); experiment: MAO-A inhibition, kynuramine fluorescence assay; type: biochemical
T2 construct: purchased Sigma Aldrich
T2 sequence (P21397 1-527): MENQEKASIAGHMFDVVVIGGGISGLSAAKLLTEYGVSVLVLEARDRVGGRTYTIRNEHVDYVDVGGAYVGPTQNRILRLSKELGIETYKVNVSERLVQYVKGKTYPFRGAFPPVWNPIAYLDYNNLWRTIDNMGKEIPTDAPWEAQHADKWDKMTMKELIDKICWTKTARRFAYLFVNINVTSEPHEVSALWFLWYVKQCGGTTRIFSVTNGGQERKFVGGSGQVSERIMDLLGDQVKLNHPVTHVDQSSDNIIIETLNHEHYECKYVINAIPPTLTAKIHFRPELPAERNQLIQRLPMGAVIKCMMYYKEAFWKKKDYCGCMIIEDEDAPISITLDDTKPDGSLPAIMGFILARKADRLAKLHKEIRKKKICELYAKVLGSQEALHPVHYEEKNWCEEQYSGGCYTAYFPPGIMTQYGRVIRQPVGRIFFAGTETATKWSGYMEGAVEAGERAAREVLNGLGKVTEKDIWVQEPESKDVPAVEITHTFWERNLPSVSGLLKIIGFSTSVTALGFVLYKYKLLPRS
Description: (§1) Human recombinant monoamine oxidase proteins MAO-A and MAO-B were purchased from Sigma Aldrich. MAOs catalyze the oxidative deamination of primary, secondary and tertiary amines. In order to monitor MAO enzymatic activities and/or their inhibition rate by inhibitor(s) of interest, a fluorescent-based (inhibitor)-screening assay was set up. 3-(2-Aminophenyl)-3-oxopropanamine (kynuramine dihydrobromide, Sigma Aldrich), a non fluorescent compound was chosen as a substrate. Kynuramine is a non-specific substrate for both MAOs activities. While undergoing oxidative deamination by MAO activities, kynuramine is converted into 4-hydroxyquinoline (4-HQ), a resulting fluorescent product.
(§2) The monoamine oxidase activity was estimated by measuring the conversion of kynuramine into 4-hydroxyquinoline. Assays were conducted in 96-well black plates with clear bottom (Corning) in a final volume of 100 μL. The assay buffer was 100 mM HEPES, pH 7.5. Each experiment was performed in duplicate within the same experiment.
(§3) Briefly, a fixed amount of MAO (0.25 μg for MAO-A and 0.5 μg for MAO-B) was incubated on ice for 15 minutes in the reaction buffer, in the absence and/or in the presence of various concentrations of inhibitor (e.g., from 0 to 50 μM, depending on the inhibitor strength).
(§4) After leaving the enzyme(s) interacting with the inhibitor, 60 to 90 μM of kynuramine was added to each reaction for MAO-B and MAO-A assay respectively, and the reaction was left for one hour at 37° C. in the dark. The oxidative deamination of the substrate was stopped by adding 50 μL (v/v) of NaOH 2N. The conversion of kynuramine to 4-hydroxyquinoline, was monitored by fluorescence (excitation at 320 nm, emission at 360 nm) using a microplate reader (Infinite 200, Tecan). Arbitrary units were used to measure levels of fluorescence produced in the absence and/or in the presence of inhibitor.
(§5) The Ki (IC50) of each inhibitor was determined at Vmax/2.

[3] = target: T3, Human recombinant monoamine oxidase MAO-B (Homo sapiens, UniProt P27338); experiment: MAO-B inhibition, kynuramine fluorescence assay; type: biochemical; settings: further, more elaborate determination (Table 1)
T3 construct: purchased Sigma Aldrich
T3 sequence (P27338 1-520): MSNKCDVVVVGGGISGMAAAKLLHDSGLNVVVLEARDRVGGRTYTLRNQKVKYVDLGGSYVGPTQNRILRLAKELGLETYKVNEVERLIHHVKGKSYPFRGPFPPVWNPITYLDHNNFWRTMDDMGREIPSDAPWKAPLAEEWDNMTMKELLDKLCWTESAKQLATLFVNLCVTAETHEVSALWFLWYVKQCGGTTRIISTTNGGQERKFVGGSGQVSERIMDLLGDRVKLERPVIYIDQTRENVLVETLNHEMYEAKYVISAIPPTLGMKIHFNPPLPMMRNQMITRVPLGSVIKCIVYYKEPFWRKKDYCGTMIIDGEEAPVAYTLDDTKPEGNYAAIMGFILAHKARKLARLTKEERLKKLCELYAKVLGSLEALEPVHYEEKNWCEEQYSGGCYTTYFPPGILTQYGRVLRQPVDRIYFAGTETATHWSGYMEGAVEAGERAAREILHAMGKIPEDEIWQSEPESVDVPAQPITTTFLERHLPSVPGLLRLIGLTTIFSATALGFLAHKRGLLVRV
Description: as §1, §2, §3, §4, §5

[4] = tested on: platelets; experiment: Platelet levels in mice after five once daily i.p. injections; type: in vivo, mice (Hsd:Athymic Nude-Foxnlnu); settings: blood 60 minutes after last administration
Method: On the fifth day, 60 minutes after the administration, mice were sacrificed and blood was collected in sodium citrate-containing tubes for hemogram analysis. […] Platelet levels were determined in a standard hematology analyzer (Abacus Junior Vet, from Diatron) following the manufacturer's instructions.
(§6) 20% 2-hydroxypropyl-j3-cyclodextrin in H2O was used as a vehicle. When necessary, 10% DMSO was also added in the vehicle. Each day, compounds were administered in a single intraperitoneal injection with administration volumes of 15 ml/kg.
(§7) Mice strain was Hsd:Athymic Nude-Foxnlnu. Animals were maintained in air and temperature controlled cages with regular supply of water and food.

[5] = tested on: H3K4 methylation in SH-SY5Y cells; experiment: Western blot for dimethylated H3K4 in SH-SY5Y cells; type: cell-based
Description: B-actin was used as a loading control.

[6] = tested on: Red blood cells; experiment: Red blood cell levels in mice after five once daily injections; type: in vivo, mice (Hsd:Athymic Nude-Foxnlnu); settings: five consecutive days
Method: (§8) On the fifth day, 60 minutes after the administration, mice were sacrificed and blood was collected in sodium citrate-containing tubes for hemogram analysis. Platelet levels were determined and referred as % of platelets compared with the levels found in mice treated with vehicle. Platelet levels were determined in a standard hematology analyzer (Abacus Junior Vet, from Diatron) following the manufacturer's instructions.
as §6, §7
(§9) Measurements of all blood cell types were conducted in the same manner as described above for platelets. Data in the table above are expressed as the % of cells vs vehicle.

[7] = tested on: Granulocytes; experiment: Granulocyte levels in mice after five once daily injections; type: in vivo, mice (Hsd:Athymic Nude-Foxnlnu); settings: five consecutive days
Method: as §8, §6, §7, §9

[8] = tested on: Lymphocytes; experiment: Lymphocyte levels in mice after five once daily injections; type: in vivo, mice (Hsd:Athymic Nude-Foxnlnu); settings: five consecutive days
Method: as §8, §6, §7, §9

[9] = tested on: White Blood Cells; experiment: White blood cell levels in mice after five once daily injections; type: in vivo, mice (Hsd:Athymic Nude-Foxnlnu); settings: five consecutive days
Method: as §8, §6, §7, §9

[10] = further, more elaborate determination (Table 1), read-out: MAO-A IC50
[11] = 30 mg/kg i.p. once daily for five days
[12] = 20 mg/kg i.p. once daily for five days
[13] = 40 mg/kg i.p. once daily for five days
[14] = 3 mg/kg i.p. once daily for five days
[15] = 10 mg/kg i.p. once daily for five days

IC50 [1]: < 0.07 µM | IC50 [2, 10]: > 1 µM | IC50 [3]: > 10 µM
SMILES: CC(C)S(=O)(=O)Nc1cccc(-c2ccc([C@H]3C[C@@H]3N)cc2)c1 (racemic) [Compound 9]
% platelets vs. Vehicle [4, 11]: 10%

SMILES: CS(=O)(=O)Nc1cccc(-c2ccc([C@H]3C[C@@H]3N)cn2)c1 (racemic) [Compound 8]
% platelets vs. Vehicle [4, 12]: 68% | % platelets vs. Vehicle [4, 13]: 44%

IC50 [1]: < 0.1 µM | IC50 [2, 10]: > 2 µM | IC50 [3]: > 2 µM
SMILES: N[C@H]1CCN(CCN[C@H]2C[C@@H]2c2ccc(-c3cccc(C(F)(F)F)c3)cc2)C1 (racemic) [Compound 4]
% platelets vs. Vehicle [4, 14]: 87% | % platelets vs. Vehicle ([4]; 9 mg/kg i.p. once daily for five days): 30% | % platelets vs. Vehicle [4, 15]: 19% | % platelets vs. Vehicle ([4]; 18 mg/kg i.p. once daily for five days): 19% | % platelets vs. Vehicle [4, 11]: 7% | % platelets vs. Vehicle ([4]; 36 mg/kg i.p. once daily for five days): 11%

IC50 [1]: < 0.2 µM | IC50 [2, 10]: > 2 µM
SMILES: NC(=O)CN[C@H]1C[C@@H]1c1ccc(OCc2ccccc2)cc1 (racemic) [Compound 1]
potency at increasing global dimethylated H3K4 levels as compared to tranylcypromine ([5]; Dual-1 at 100 μM vs parnate at 250 μM): ten-fold or more potent | H3K4 methylation (western blot) ([5]; compound at 100 μM, one, two, and three days): increases H3K4 methylation in cells in a time dependent manner | % platelets vs. Vehicle ([4]; 5 mg/kg i.p. once daily for five days): 91% | % platelets vs. Vehicle [4, 15]: 66% | % platelets vs. Vehicle [4, 12]: 55% | % platelets vs. Vehicle [4, 13]: 34%

SMILES: N[C@H]1C[C@@H]1c1ccc(-c2cccc(C(F)(F)F)c2)nc1 (racemic) [Compound 6]
% platelets vs. Vehicle [4, 15]: 87% | % platelets vs. Vehicle [4, 11]: 63%

SMILES: CN1CCN(C(=O)CN[C@H]2C[C@@H]2c2ccc(OCc3ccccc3)cc2)CC1 (racemic) [Compound 3]
Red blood cells, % of cells vs vehicle ([6]; 1 mg/kg): 103% | Red blood cells, % of cells vs vehicle ([6]; 3 mg/kg): 101% | Red blood cells, % of cells vs vehicle ([6]; 10 mg/kg): 92% | Granulocytes, % of cells vs vehicle ([7]; 1 mg/kg): 69% | Granulocytes, % of cells vs vehicle ([7]; 3 mg/kg): 63% | Granulocytes, % of cells vs vehicle ([7]; 10 mg/kg): 23% | IC50 [2, 10]: > 2 µM | Lymphocytes, % of cells vs vehicle ([8]; 1 mg/kg): 115% | Lymphocytes, % of cells vs vehicle ([8]; 3 mg/kg): 90% | Lymphocytes, % of cells vs vehicle ([8]; 10 mg/kg): 35% | % platelets vs. Vehicle ([4]; 1 mg/kg i.p. once daily for five days): 46% | % platelets vs. Vehicle [4, 14]: 16% | % platelets vs. Vehicle [4, 15]: 5% | White Blood Cells, % of cells vs vehicle ([9]; 1 mg/kg): 86% | White Blood Cells, % of cells vs vehicle ([9]; 3 mg/kg): 76% | White Blood Cells, % of cells vs vehicle ([9]; 10 mg/kg): 29%

SMILES: N[C@H]1C[C@@H]1c1ccc(-c2cccc(O)c2)cc1 (racemic) [Compound 7]
IC50 [1]: < 0.07 µM | IC50 [2, 10]: > 0.2 µM | IC50 ([2]; initial determination, read-out: IC50 for MAO-A): > 1 µM | IC50 [3]: > 1 µM | % platelets vs. Vehicle ([4]; 17 mg/kg i.p. once daily for five days): 56% | % platelets vs. Vehicle ([4]; 34 mg/kg i.p. once daily for five days): 46% | % platelets vs. Vehicle ([4]; 52 mg/kg i.p. once daily for five days): 63%

IC50 [1]: < 0.2 µM | IC50 [2, 10]: > 2 µM
SMILES: NC(=O)CN[C@H]1C[C@@H]1c1ccc(OCc2ccccc2)cc1 (single isomer, unassigned) [Compound 2]
% platelets vs. Vehicle [4, 12]: 35% | % platelets vs. Vehicle [4, 13]: 27% | % platelets vs. Vehicle ([4]; 60 mg/kg i.p. once daily for five days): 16%
